Source: ChEMBL document CHEMBL5365529, “Construction and Evaluation of Novel Dual-function Antifungal Inhibitors and Covalent Organic Framework Carriers Based on the Infection Microenvironment” (J Med Chem, 2023)
pIC50: −log10 of the molar value. Values after ≈ are worked out from the molar mass of the structure shown. Active and inactive are the calls of the source. The rule behind the calls is not given here.

Columns and labels:
[1] = molecular target: T1, Lanosterol 14-alpha demethylase (Candida albicans (strain SC5314 / ATCC MYA-2876) (Yeast), UniProt P10613); test: Inhibition of CYP51 in Candida albicans SC5314 assessed as unknown sterol level at 4 ug/ml incubated for 16 hrs by GC-MS analysis (reference value: 5.35 %); parameters: scale not given: the % may be the effect or the level left; conditions: at 4 µg/mL
T1 sequence (P10613 whole entry): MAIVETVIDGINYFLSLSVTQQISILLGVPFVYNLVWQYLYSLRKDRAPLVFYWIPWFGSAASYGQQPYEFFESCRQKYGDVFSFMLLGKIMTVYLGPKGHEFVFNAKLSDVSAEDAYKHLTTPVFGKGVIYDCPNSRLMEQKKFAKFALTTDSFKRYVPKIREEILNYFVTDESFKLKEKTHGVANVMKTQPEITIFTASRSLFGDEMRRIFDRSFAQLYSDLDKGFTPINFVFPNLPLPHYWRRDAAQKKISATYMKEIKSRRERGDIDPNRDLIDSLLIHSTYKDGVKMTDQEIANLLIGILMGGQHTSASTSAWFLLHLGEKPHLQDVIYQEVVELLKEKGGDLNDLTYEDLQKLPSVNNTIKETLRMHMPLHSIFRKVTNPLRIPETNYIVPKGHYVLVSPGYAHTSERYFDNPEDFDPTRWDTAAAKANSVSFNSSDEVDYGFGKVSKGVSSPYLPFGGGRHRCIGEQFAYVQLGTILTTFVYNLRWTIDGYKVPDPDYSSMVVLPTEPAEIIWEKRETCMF

[2] = molecular target: T1, Lanosterol 14-alpha demethylase; test: Inhibition of CYP51 in Candida albicans SC5314 assessed as lanosterol level at 4 ug/ml incubated for 16 hrs by GC-MS analysis relative to control; parameters: scale not given: the % may be the effect or the level left; conditions: at 4 µg/mL
Candida albicans [3] = test: Antifungal activity against Candida albicans SC5314 assessed as fungal growth inhibition incubated for 72 hrs by CLSI based susceptibility test; format: functional
Nakaseomyces glabratus = test: Antifungal activity against Candida glabrata assessed as fungal growth inhibition incubated for 72 hrs by CLSI based susceptibility test; format: functional
Candida tropicalis = test: Antifungal activity against Candida tropicalis ATCC 1369 assessed as fungal growth inhibition incubated for 72 hrs by CLSI based susceptibility test; format: functional
Cryptococcus neoformans = test: Antifungal activity against Cryptococcus neoformans ZKCC 2209 assessed as fungal growth inhibition incubated for 72 hrs by CLSI based susceptibility test; format: functional
Aspergillus fumigatus = test: Antifungal activity against Aspergillus fumigatus KM8001 assessed as fungal growth inhibition incubated for 72 hrs by CLSI based susceptibility test; format: functional
Candida albicans [4] = test: Antifungal activity against FLC-resistant Candida albicans 632 assessed as fungal growth inhibition incubated for 72 hrs by CLSI based susceptibility test; format: functional
Candida albicans [5] = test: Antifungal activity against FLC-resistant Candida albicans 17# assessed as fungal growth inhibition incubated for 72 hrs by CLSI based susceptibility test; format: functional
Candida albicans [6] = test: Antifungal activity against FLC-resistant Candida albicans CaR assessed as fungal growth inhibition incubated for 72 hrs by CLSI based susceptibility test; format: functional
Candida albicans [7] = test: Antifungal activity against FLC-resistant Candida albicans 901 assessed as fungal growth inhibition incubated for 72 hrs by CLSI based susceptibility test; format: functional
Candida albicans [8] = test: Antifungal activity against FLC-resistant Candida albicans 904 assessed as fungal growth inhibition incubated for 72 hrs by CLSI based susceptibility test; format: functional
[9] = molecular target: T1, Lanosterol 14-alpha demethylase; test: Inhibition of CYP51 in Candida albicans SC5314 using lanosterol as substrate incubated for 60 mins by HPLC analysis
Candida albicans [10] = test: Induction of mitochondrial membrane depolarization in Candida albicans SC5314 by JC-1 staining based flow cytometry (reference value: 12.51 %); format: functional
Candida albicans [11] = test: Induction of apoptosis in Candida albicans SC5314 assessed as apoptotic cells incubated for 48 hrs by annexin V-FITC/PI staining based flow cytometry (reference value: 2.12 %); format: functional
Candida albicans [12] = test: Induction of apoptosis in Candida albicans SC5314 assessed as necrotic cells incubated for 48 hrs by annexin V-FITC/PI staining based flow cytometry (reference value: 2.12 %); format: functional
Candida albicans [13] = test: Antifungal activity against Candida albicans 901 infected in BALB/c mouse assessed as reduction in fungal growth at 0.5 ug/g administered 6 times measured after 4 days by H and E staining based analysis; format: functional, organism-based; conditions: dose 0.5 µg/g, time 4.0 day
Candida albicans [14] = test: Antifungal activity against Candida albicans 901 infected in BALB/c mouse assessed as inhibition of fungal proliferation at 0.5 ug/g administered 6 times measured after 4 days in presence of Biphenyl isopropyl ester by Masson staining based analysis; format: functional, organism-based; conditions: dose 0.5 µg/g, time 4.0 day
Candida albicans [15] = test: Antifungal activity against Candida albicans 901 infected in BALB/c mouse assessed as inhibition of fungal proliferation at 0.5 ug/g administered 6 times measured after 4 days in presence of Biphenyl isopropyl ester by GMS staining based analysis; format: functional, organism-based; conditions: dose 0.5 µg/g, time 4.0 day
Candida albicans [16] = test: Antifungal activity against Candida albicans 901 infected in BALB/c mouse assessed as decrease in collagen fiber content at 0.5 ug/g administered 6 times measured after 4 days in presence of Biphenyl isopropyl ester by Masson staining based analysis; format: functional, organism-based; conditions: dose 0.5 µg/g, time 4.0 day
Candida albicans [17] = test: Antifungal activity against Candida albicans 901 infected in BALB/c mouse assessed as decrease in collagen fiber content at 0.5 ug/g administered 6 times measured after 4 days in presence of Biphenyl isopropyl ester by GMS staining based analysis; format: functional, organism-based; conditions: dose 0.5 µg/g, time 4.0 day
Candida albicans [18] = test: Antifungal activity against Candida albicans 901 infected in BALB/c mouse assessed as repair of tissue damage at 0.5 ug/g administered 6 times measured after 4 days in presence of Biphenyl isopropyl ester by Masson staining based analysis; format: functional, organism-based; conditions: dose 0.5 µg/g, time 4.0 day
Candida albicans [19] = test: Antifungal activity against Candida albicans 901 infected in BALB/c mouse assessed as repair of tissue damage at 0.5 ug/g administered 6 times measured after 4 days in presence of Biphenyl isopropyl ester by GMS staining based analysis; format: functional, organism-based; conditions: dose 0.5 µg/g, time 4.0 day
[20] = Toxicity in BALB/c mouse infected with Candida albicans 901 assessed as pathological change in heart at 0.5 ug/g administered 6 times measured after 4 days in presence of Biphenyl isopropyl ester by H and E staining based analysis; format: tissue-based; conditions: in vivo, 96 h, dose 0.5 µg/g, time 4 day
[21] = Toxicity in BALB/c mouse infected with Candida albicans 901 assessed as pathological change in lung at 0.5 ug/g administered 6 times measured after 4 days in presence of Biphenyl isopropyl ester by H and E staining based analysis; format: tissue-based; conditions: in vivo, 96 h, dose 0.5 µg/g, time 4 day
[22] = Toxicity in BALB/c mouse infected with Candida albicans 901 assessed as pathological change in spleen at 0.5 ug/g administered 6 times measured after 4 days in presence of Biphenyl isopropyl ester by H and E staining based analysis; format: tissue-based; conditions: in vivo, 96 h, dose 0.5 µg/g, time 4 day
[23] = Toxicity in BALB/c mouse infected with Candida albicans 901 assessed as pathological change in liver at 0.5 ug/g administered 6 times measured after 4 days in presence of Biphenyl isopropyl ester by H and E staining based analysis; format: tissue-based; conditions: in vivo, 96 h, dose 0.5 µg/g, time 4 day
[24] = Toxicity in BALB/c mouse infected with Candida albicans 901 assessed as pathological change in kidney at 0.5 ug/g administered 6 times measured after 4 days in presence of Biphenyl isopropyl ester by H and E staining based analysis; format: tissue-based; conditions: in vivo, 96 h, dose 0.5 µg/g, time 4 day
Mus musculus [25] = test: Antiinflammatory activity in BALB/c mouse infected with Candida albicans 901 assessed as decrease in INF-gamma level at 0.5 ug/g administered 6 times measured after 4 days by Western blot analysis; format: functional, organism-based; conditions: dose 0.5 µg/g, time 4.0 day
Mus musculus [26] = test: Antiinflammatory activity in BALB/c mouse infected with Candida albicans 901 assessed as decrease in NLRP3 level at 0.5 ug/g administered 6 times measured after 4 days by Western blot analysis; format: functional, organism-based; conditions: dose 0.5 µg/g, time 4.0 day
Mus musculus [27] = test: Antiinflammatory activity in BALB/c mouse infected with Candida albicans 901 assessed as decrease in kappaB-p65 level at 0.5 ug/g administered 6 times measured after 4 days by Western blot analysis; format: functional, organism-based; conditions: dose 0.5 µg/g, time 4.0 day
Candida albicans [28] = test: Induction of immunity in BALB/c mouse infected with Candida albicans 901 assessed as decrease in PD-L1 level at 0.5 ug/g administered 6 times measured after 4 days by Western blot analysis; format: functional, organism-based; conditions: dose 0.5 µg/g, time 4.0 day
Candida albicans [29] = test: Induction of immunity in BALB/c mouse infected with Candida albicans 901 assessed as decrease in PD-L1 level at 0.5 ug/g administered 6 times measured after 4 days in presence of Biphenyl isopropyl ester by Western blot analysis; format: functional, organism-based; conditions: dose 0.5 µg/g, time 4.0 day
Candida albicans [30] = test: Induction of immunity in BALB/c mouse infected with Candida albicans 901 assessed as decrease in PD-L1 level at 0.5 ug/g administered 6 times measured after 4 days by IHC analysis; format: functional, organism-based; conditions: dose 0.5 µg/g, time 4.0 day
Candida albicans [31] = test: Induction of immunity in BALB/c mouse infected with Candida albicans 901 assessed as decrease in PD-L1 level at 0.5 ug/g administered 6 times measured after 4 days in presence of Biphenyl isopropyl ester by IHC analysis; format: functional, organism-based; conditions: dose 0.5 µg/g, time 4.0 day

CC(=O)N1CCN(c2ccc(OCC3COC(Cn4ccnc4)(c4ccc(Cl)cc4Cl)O3)cc2)CC1 (stereo not given) [KETOCONAZOLE]
Activity [1]: 5.07%
Activity [2]: 13.06%
MIC50 (Candida albicans [3]): 0.25 µg/mL (≈ 0.47 µM)
MIC50 (Nakaseomyces glabratus): 1 µg/mL (≈ 1.88 µM)
MIC50 (Candida tropicalis): 0.5 µg/mL (≈ 0.941 µM)
MIC50 (Cryptococcus neoformans): 4 µg/mL (≈ 7.53 µM)
MIC50 (Aspergillus fumigatus): 4 µg/mL (≈ 7.53 µM)
MIC50 (Candida albicans [4]): ≥ 8 µg/mL
MIC50 (Candida albicans [5]): 4 µg/mL (≈ 7.53 µM)
MIC50 (Candida albicans [6]): ≥ 8 µg/mL
MIC50 (Candida albicans [7]): 4 µg/mL (≈ 7.53 µM)
MIC50 (Candida albicans [8]): 4 µg/mL (≈ 7.53 µM)
pIC50 [9]: 6.89
Activity (Candida albicans [10]): 34.74%
Activity (Candida albicans [11]): 25.91%
Activity (Candida albicans [12]): 25.91%
Activity (Candida albicans [13]): Active
inhibition (Candida albicans [14]): Active
inhibition (Candida albicans [15]): Active
Activity (Candida albicans [16]): Active
Activity (Candida albicans [17]): Active
Activity (Candida albicans [18]): Active
Activity (Candida albicans [19]): Active
Activity [20]: Non-Toxic
Activity [21]: Non-Toxic
Activity [22]: Non-Toxic
Activity [23]: Non-Toxic
Activity [24]: Non-Toxic
Activity (Mus musculus [25]): inactive
Activity (Mus musculus [26]): inactive
Activity (Mus musculus [27]): inactive
Activity (Candida albicans [28]): Active
Activity (Candida albicans [29]): Active
Activity (Candida albicans [30]): Active
Activity (Candida albicans [31]): Active
